Source: PubChem BioAssay (NCI)
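Cells were grown in 96-well plates and exposed to each compound for 48 hours at five concentrations; endpoints were interpolated linearly between bracketing concentrations, or set to the highest concentration if not reached. At the GI50, growth is halved. TGI: total growth inhibition.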

How the values were obtained:
Assay in all cases: NCI-60 cell line screen, 48 h
NCI-H460 lung = test system: NCI-H460 lung
U251 CNS = test system: U251 CNS
TK-10 renal = test system: TK-10 renal
SF-268 CNS = test system: SF-268 CNS
OVCAR-3 ovarian = test system: OVCAR-3 ovarian
HCT-116 colon = test system: HCT-116 colon
CCRF-CEM leukemia = test system: CCRF-CEM leukemia
RXF 393 renal = test system: RXF 393 renal
LOX IMVI melanoma = test system: LOX IMVI melanoma
UACC-257 melanoma = test system: UACC-257 melanoma
OVCAR-4 ovarian = test system: OVCAR-4 ovarian
SNB-19 CNS = test system: SNB-19 CNS
COLO 205 colon = test system: COLO 205 colon
HS 578T breast = test system: HS 578T breast
A498 renal = test system: A498 renal
HT29 colon = test system: HT29 colon
UO-31 renal = test system: UO-31 renal
786-0 renal = test system: 786-0 renal
HCT-15 colon = test system: HCT-15 colon
SF-539 CNS = test system: SF-539 CNS
SW-620 colon = test system: SW-620 colon
OVCAR-5 ovarian = test system: OVCAR-5 ovarian
MCF7 breast = test system: MCF7 breast
SK-MEL-28 melanoma = test system: SK-MEL-28 melanoma
MDA-MB-435 = test system: MDA-MB-435
SF-295 CNS = test system: SF-295 CNS
T-47D breast = test system: T-47D breast
K-562 leukemia = test system: K-562 leukemia
NCI/ADR-RES ovarian = test system: NCI/ADR-RES ovarian
M14 melanoma = test system: M14 melanoma
ACHN renal = test system: ACHN renal
RPMI-8226 leukemia = test system: RPMI-8226 leukemia
SK-MEL-2 melanoma = test system: SK-MEL-2 melanoma
CAKI-1 renal = test system: CAKI-1 renal
NCI-H226 lung = test system: NCI-H226 lung
SK-OV-3 ovarian = test system: SK-OV-3 ovarian
MALME-3M melanoma = test system: MALME-3M melanoma
NCI-H23 lung = test system: NCI-H23 lung
A549 NSCLC = test system: A549 NSCLC
NCI-H522 lung = test system: NCI-H522 lung
OVCAR-8 ovarian = test system: OVCAR-8 ovarian
SR leukemia = test system: SR leukemia
PC-3 prostate = test system: PC-3 prostate
UACC-62 melanoma = test system: UACC-62 melanoma
SK-MEL-5 melanoma = test system: SK-MEL-5 melanoma
MDA-MB-231 breast = test system: MDA-MB-231 breast
MOLT-4 leukemia = test system: MOLT-4 leukemia
HOP-62 NSCLC = test system: HOP-62 NSCLC
SNB-75 CNS = test system: SNB-75 CNS
BT-549 breast = test system: BT-549 breast
IGROV1 ovarian = test system: IGROV1 ovarian
KM12 colon = test system: KM12 colon
DU-145 prostate = test system: DU-145 prostate
HL-60(TB) leukemia = test system: HL-60(TB) leukemia
HCC-2998 colon = test system: HCC-2998 colon
SN12C renal = test system: SN12C renal

Cn1cc(C2=C(c3cn(CCCO)c4ccccc34)C(=O)NC2=O)c2ccccc21
GI50 (NCI-H460 lung): 4.9 µM
TGI (NCI-H460 lung): 12.5 µM
GI50 (U251 CNS): 6.15 µM
TGI (U251 CNS): 19.3 µM
GI50 (TK-10 renal): 3.96 µM
TGI (TK-10 renal): 13.3 µM
GI50 (SF-268 CNS): 6.11 µM
TGI (SF-268 CNS): 17.6 µM
GI50 (OVCAR-3 ovarian): 6 µM
TGI (OVCAR-3 ovarian): > 19.5 µM
GI50 (HCT-116 colon): 4.62 µM
TGI (HCT-116 colon): > 17.7 µM
GI50 (CCRF-CEM leukemia): 3.01 µM
TGI (CCRF-CEM leukemia): 18.2 µM
GI50 (RXF 393 renal): 3.87 µM
TGI (RXF 393 renal): 9.56 µM
GI50 (LOX IMVI melanoma): 6.12 µM
TGI (LOX IMVI melanoma): > 21.4 µM
GI50 (UACC-257 melanoma): 8.15 µM
TGI (UACC-257 melanoma): 24.7 µM
GI50 (OVCAR-4 ovarian): 4.63 µM
TGI (OVCAR-4 ovarian): > 20.7 µM
GI50 (SNB-19 CNS): 9.36 µM
TGI (SNB-19 CNS): > 25 µM
GI50 (COLO 205 colon): 5.39 µM
TGI (COLO 205 colon): 16 µM
GI50 (HS 578T breast): 5.35 µM
TGI (HS 578T breast): 17.3 µM
GI50 (A498 renal): 5.45 µM
TGI (A498 renal): 13.9 µM
GI50 (HT29 colon): 5.4 µM
TGI (HT29 colon): > 19.3 µM
GI50 (UO-31 renal): 4.04 µM
TGI (UO-31 renal): 14 µM
GI50 (786-0 renal): 7.03 µM
TGI (786-0 renal): > 22.8 µM
GI50 (HCT-15 colon): 3.33 µM
TGI (HCT-15 colon): > 25 µM
GI50 (SF-539 CNS): 4.57 µM
TGI (SF-539 CNS): 11.4 µM
GI50 (SW-620 colon): 7.11 µM
TGI (SW-620 colon): > 25 µM
GI50 (OVCAR-5 ovarian): 11.4 µM
TGI (OVCAR-5 ovarian): > 25 µM
GI50 (MCF7 breast): 2.66 µM
TGI (MCF7 breast): 17.4 µM
GI50 (SK-MEL-28 melanoma): 6.49 µM
TGI (SK-MEL-28 melanoma): 18.8 µM
GI50 (MDA-MB-435): 2.34 µM
TGI (MDA-MB-435): > 25 µM
GI50 (SF-295 CNS): 5.11 µM
TGI (SF-295 CNS): > 17 µM
GI50 (T-47D breast): 4.94 µM
TGI (T-47D breast): 18.6 µM
GI50 (K-562 leukemia): 5.61 µM
TGI (K-562 leukemia): > 25 µM
GI50 (NCI/ADR-RES ovarian): 7.23 µM
TGI (NCI/ADR-RES ovarian): > 22.8 µM
GI50 (M14 melanoma): 7.29 µM
TGI (M14 melanoma): > 25 µM
GI50 (ACHN renal): 4.99 µM
TGI (ACHN renal): 19.8 µM
GI50 (RPMI-8226 leukemia): 5.97 µM
TGI (RPMI-8226 leukemia): 15 µM
GI50 (SK-MEL-2 melanoma): 1.79 µM
TGI (SK-MEL-2 melanoma): 4.72 µM
GI50 (CAKI-1 renal): 3.93 µM
TGI (CAKI-1 renal): 16.9 µM
GI50 (NCI-H226 lung): 5.05 µM
TGI (NCI-H226 lung): 19.1 µM
GI50 (SK-OV-3 ovarian): 4.29 µM
TGI (SK-OV-3 ovarian): > 22.1 µM
GI50 (MALME-3M melanoma): 8.52 µM
TGI (MALME-3M melanoma): 21.3 µM
GI50 (NCI-H23 lung): 5.37 µM
TGI (NCI-H23 lung): 18 µM
GI50 (A549 NSCLC): 5.68 µM
TGI (A549 NSCLC): 17.5 µM
GI50 (NCI-H522 lung): 3.47 µM
TGI (NCI-H522 lung): 13.2 µM
GI50 (OVCAR-8 ovarian): 6.4 µM
TGI (OVCAR-8 ovarian): > 21.1 µM
GI50 (SR leukemia): 2.71 µM
TGI (SR leukemia): > 19.1 µM
GI50 (PC-3 prostate): 6.8 µM
TGI (PC-3 prostate): 24.6 µM
GI50 (UACC-62 melanoma): 5.56 µM
TGI (UACC-62 melanoma): 12.3 µM
GI50 (SK-MEL-5 melanoma): 4.2 µM
TGI (SK-MEL-5 melanoma): 10.8 µM
GI50 (MDA-MB-231 breast): 9.38 µM
TGI (MDA-MB-231 breast): > 25 µM
GI50 (MOLT-4 leukemia): 6.05 µM
TGI (MOLT-4 leukemia): > 20.7 µM
GI50 (HOP-62 NSCLC): 7 µM
TGI (HOP-62 NSCLC): 19.5 µM
GI50 (SNB-75 CNS): 3.11 µM
TGI (SNB-75 CNS): 12.3 µM
GI50 (BT-549 breast): 3.76 µM
TGI (BT-549 breast): 11.5 µM
GI50 (IGROV1 ovarian): 6.04 µM
TGI (IGROV1 ovarian): 16.6 µM
GI50 (KM12 colon): 1.77 µM
TGI (KM12 colon): 16.8 µM
GI50 (DU-145 prostate): 6.97 µM
TGI (DU-145 prostate): > 22.5 µM
GI50 (HL-60(TB) leukemia): 6.1 µM
TGI (HL-60(TB) leukemia): 15.3 µM
GI50 (HCC-2998 colon): 7.83 µM
TGI (HCC-2998 colon): > 25 µM
GI50 (SN12C renal): 5.25 µM
TGI (SN12C renal): > 25 µM
